Measurements published in PubChem BioAssay (NCI).
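Five compound concentrations were applied to cells in 96-well plates for 48 hours; endpoints were derived by simple linear interpolation of the resulting dose-response curve. GI50: concentration for 50% inhibition of growth. TGI: total growth inhibition.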 Where a SMILES comes first, the peptide text is derived from it. [ ]: non-standard residue; d: D form. The star is where a group is joined. NMeAc5c = CNC1(C(=O)O)CCCC1; Boc = CC(C)(C)OC(=O)*; OBn = c1ccc(CO*)cc1

What follows are compounds tested on RPMI-8226 leukemia (assay: NCI anticancer screen, dose series, 48 h).
`CCCCCCc1cc2cc(-c3csc(CC#N)n3)c(=O)oc2cc1O` gave a TGI greater than 100 µM. `C=C1C(=O)O[C@@H]2C(=O)[C@@H](C)CCC/C(C)=C/CC[C@@]3(C)O[C@@H]3C[C@@H]12` gave a TGI of 54.1 µM. With `COc1cc(Br)cc2cc(-c3cn4ccsc4n3)c(=O)oc12` the TGI was greater than 100 µM. `O=C(NC(=O)c1ccccc1[N+](=O)[O-])Nc1ccc(Oc2ncc(Br)cn2)c(Cl)c1` showed a GI50 of less than 0.02 µM. `ClCCN1CCC2(CC1)SSC1(CCN(CCCl)CC1)S2` gave a TGI of 57.1 µM. Work on `O=c1c2cc([N+](=O)[O-])cnc2sn1-c1ccc([N+](=O)[O-])cc1` yielded a TGI of 81.2 µM. In the case of `COC(=O)C1SC(SC)=NC12c1ccccc1Nc1ccccc12` (stereo not given), the TGI is reported as 49.4 µM. `COc1ccc2cc(NC(=O)N/N=C\c3ccc([N+](=O)[O-])cc3)ccc2c1` gave a TGI greater than 100 µM. `CCOC(=O)C1(C/C=C/CBr)Cc2ccccc2C1=O` (stereo not given) gave a TGI of 4.88 µM. `CN1CCc2cc(N)cc3c2C1Cc1ccc(O)c(O)c1-3` (stereo not given) was tested, and the TGI was 66.4 µM. `CCCN(C(=O)c1ccccc1)C(C#N)c1ccc(C(C#N)N(CCC)C(=O)c2ccccc2)cc1` (stereo not given) gave a TGI greater than 100 µM. `S=C1Nc2ccccc2SC1c1ccccc1` (stereo not given) showed a TGI greater than 100 µM. `COC(=O)c1ccccc1CC1Cc2ccc3c(c2C1=O)CCCC3` (stereo not given) was tested, and the TGI was greater than 75.5 µM. Work on `CN1CCN(C2=NCCO2)CC1` yielded a TGI greater than 100 µM. Compound `c1ccc(N=c2sc3ccccc3nc2Nc2ccccc2)cc1` has a TGI greater than 100 µM. `CCOC(=O)c1csc(NC(=O)CN2CCOCC2)n1` showed a TGI greater than 100 µM. For `O=C1/C(=C/c2ccccc2)N=C2Sc3c(nc[nH]c3=O)N12`, the TGI was greater than 100 µM. For `C=CC1(C)CCC2C(=CCC3C2(C)CC(O)C(O)C3(C)COC2OC(C(=O)O)C(O)C(O)C2O)C1` (stereo not given) (tested in a mixture with another compound), the TGI was greater than 100 µM. `N#Cc1c(N2CCCC2)ncn(-c2ccccc2)c1=O` showed a TGI greater than 100 µM. Work on `O=[N+]([O-])c1ccc2c(c1)/C(=N/N=C1c3ccccc3Cc3ccccc31)c1cc([N+](=O)[O-])cc([N+](=O)[O-])c1-2` yielded a TGI greater than 100 µM. `CN(C(=O)C(Cc1ccccc1)NC(=O)OC(C)(C)C)C1(C(=O)NC(Cc2ccccc2)C(=O)OCc2ccccc2)CCCC1` (stereo not drawn) (Boc-Phe-[NMeAc5c]-Phe-OBn; configuration not given here) was tested, and the TGI was 57.2 µM. Compound `Cc1ccc([N+](=O)[O-])cc1NC1=NCCO1` has a TGI greater than 100 µM. Compound `CC(C)=CCc1c2c(c3occ(-c4ccc(O)cc4)c(=O)c3c1O)CC(C(C)(C)O)O2` (stereo not given) has a TGI of 29.9 µM. `CCOC(=O)C(SCCO)C(C(=O)OCC)n1cnc2c(=O)[nH]c(NC(C)=O)nc21` (stereo not given) was tested, and the TGI was greater than 100 µM. Compound `O=[N+]([O-])c1ccc2c(c1)c(OCc1ccccc1)nn2Cc1ccccc1` has a TGI greater than 100 µM. `C#CCNC(CS)C(=O)O` (stereo not given) was tested, and the TGI was greater than 100 µM. `Cc1ccc(N=NC(=Nc2ccccc2)c2ccc(N(CCC#N)CCC#N)cc2)cc1` gave a TGI greater than 100 µM. `Cc1ccccc1C(=O)N1CCc2c([nH]c3ccccc23)C1` was tested, and the TGI was 51.3 µM. For `CC[C@@H]1CC[C@@H]2[C@H](CC[C@]3(C)[C@@H](OC(C)=O)CC[C@@H]23)[C@H]1COC(C)=O`, the TGI was 48.7 µM. For `NS(=O)(=O)c1ccc2c(c1)OCCOCCOCCOCCO2`, the TGI was greater than 100 µM. `CCOC(=O)/C=C/CC(C)(C)CCOC(C)=O` gave a TGI greater than 10 µM. `COC(=O)C([C@H](NC1(c2ccccc2)c2ccccc2-c2ccccc21)C(=O)OC)N(NC(=O)OCc1ccccc1)C(=O)OCc1ccccc1` (mixture of isomers) gave a TGI greater than 100 µM. For `COC(=O)c1cc(=O)nc2sc3cccc(C)c3n12`, the TGI was 67.9 µM.

Each compound was assayed on HCT-15 colon (assay: NCI anticancer screen, dose series, 48 h).
`NC(N)=N/N=C/c1c(-c2ccc(N)cc2)nc2sccn12` showed a TGI greater than 100 µM. `CCCCCCc1cc2cc(-c3csc(CC#N)n3)c(=O)oc2cc1O` gave a TGI greater than 100 µM. Work on `C=C1C(=O)O[C@@H]2C(=O)[C@@H](C)CCC/C(C)=C/CC[C@@]3(C)O[C@@H]3C[C@@H]12` yielded a TGI of 44 µM. `COc1cc(Br)cc2cc(-c3cn4ccsc4n3)c(=O)oc12` showed a TGI greater than 100 µM. `O=C(NC(=O)c1ccccc1[N+](=O)[O-])Nc1ccc(Oc2ncc(Br)cn2)c(Cl)c1` gave a GI50 of less than 0.0258 µM and a TGI greater than 42.7 µM. For `ClCCN1CCC2(CC1)SSC1(CCN(CCCl)CC1)S2`, the TGI was greater than 100 µM. For `O=c1c2cc([N+](=O)[O-])cnc2sn1-c1ccc([N+](=O)[O-])cc1`, the TGI was 87.5 µM. `COC(=O)C1SC(SC)=NC12c1ccccc1Nc1ccccc12` (stereo not given) gave a TGI greater than 100 µM. `COc1ccc2cc(NC(=O)N/N=C\c3ccc([N+](=O)[O-])cc3)ccc2c1` gave a TGI greater than 100 µM. With `CCOC(=O)C1(C/C=C/CBr)Cc2ccccc2C1=O` (stereo not given) the TGI was 5.73 µM. For `CN1CCc2cc(N)cc3c2C1Cc1ccc(O)c(O)c1-3` (stereo not given), the TGI was greater than 100 µM. `CCCN(C(=O)c1ccccc1)C(C#N)c1ccc(C(C#N)N(CCC)C(=O)c2ccccc2)cc1` (stereo not given) gave a TGI greater than 100 µM. In the case of `S=C1Nc2ccccc2SC1c1ccccc1` (stereo not given), the TGI is reported as greater than 100 µM. In the case of `COC(=O)c1ccccc1CC1Cc2ccc3c(c2C1=O)CCCC3` (stereo not given), the TGI is reported as greater than 100 µM. `CN1CCN(C2=NCCO2)CC1` gave a TGI greater than 100 µM. For `c1ccc(N=c2sc3ccccc3nc2Nc2ccccc2)cc1`, the TGI was greater than 100 µM. Work on `CCOC(=O)c1csc(NC(=O)CN2CCOCC2)n1` yielded a TGI greater than 100 µM. Compound `O=C1/C(=C/c2ccccc2)N=C2Sc3c(nc[nH]c3=O)N12` has a TGI greater than 100 µM. For `C=CC1(C)CCC2C(=CCC3C2(C)CC(O)C(O)C3(C)COC2OC(C(=O)O)C(O)C(O)C2O)C1` (stereo not given) (tested in a mixture with another compound), the TGI was greater than 100 µM. `N#Cc1c(N2CCCC2)ncn(-c2ccccc2)c1=O` was tested, and the TGI was greater than 100 µM. `O=[N+]([O-])c1ccc2c(c1)/C(=N/N=C1c3ccccc3Cc3ccccc31)c1cc([N+](=O)[O-])cc([N+](=O)[O-])c1-2` showed a TGI of 4.99 µM. For `CN(C(=O)C(Cc1ccccc1)NC(=O)OC(C)(C)C)C1(C(=O)NC(Cc2ccccc2)C(=O)OCc2ccccc2)CCCC1` (stereo not drawn) (Boc-Phe-[NMeAc5c]-Phe-OBn; configuration not given here), the TGI was greater than 100 µM. `Cc1ccc([N+](=O)[O-])cc1NC1=NCCO1` was tested, and the TGI was greater than 100 µM. Work on `CC(C)=CCc1c2c(c3occ(-c4ccc(O)cc4)c(=O)c3c1O)CC(C(C)(C)O)O2` (stereo not given) yielded a TGI of 30 µM. With `CCOC(=O)C(SCCO)C(C(=O)OCC)n1cnc2c(=O)[nH]c(NC(C)=O)nc21` (stereo not given) the TGI was greater than 100 µM. `O=[N+]([O-])c1ccc2c(c1)c(OCc1ccccc1)nn2Cc1ccccc1` showed a TGI greater than 100 µM. `C#CCNC(CS)C(=O)O` (stereo not given) showed a TGI greater than 100 µM. `Cc1ccc(N=NC(=Nc2ccccc2)c2ccc(N(CCC#N)CCC#N)cc2)cc1` gave a TGI greater than 100 µM. `Cc1ccccc1C(=O)N1CCc2c([nH]c3ccccc23)C1` showed a TGI of 62.1 µM. Work on `CC[C@@H]1CC[C@@H]2[C@H](CC[C@]3(C)[C@@H](OC(C)=O)CC[C@@H]23)[C@H]1COC(C)=O` yielded a TGI of 56 µM. `NS(=O)(=O)c1ccc2c(c1)OCCOCCOCCOCCO2` showed a TGI greater than 100 µM. `CCOC(=O)/C=C/CC(C)(C)CCOC(C)=O` showed a TGI greater than 10 µM. `COC(=O)C([C@H](NC1(c2ccccc2)c2ccccc2-c2ccccc21)C(=O)OC)N(NC(=O)OCc1ccccc1)C(=O)OCc1ccccc1` (mixture of isomers) was tested, and the TGI was greater than 100 µM. Compound `COC(=O)c1cc(=O)nc2sc3cccc(C)c3n12` has a TGI greater than 100 µM.

What follows are compounds tested on SF-295 CNS (assay: NCI anticancer screen, dose series, 48 h).
Compound `NC(N)=N/N=C/c1c(-c2ccc(N)cc2)nc2sccn12` has a TGI of 55.6 µM. Work on `CCCCCCc1cc2cc(-c3csc(CC#N)n3)c(=O)oc2cc1O` yielded a TGI greater than 100 µM. With `C=C1C(=O)O[C@@H]2C(=O)[C@@H](C)CCC/C(C)=C/CC[C@@]3(C)O[C@@H]3C[C@@H]12` the TGI was greater than 100 µM. `COc1cc(Br)cc2cc(-c3cn4ccsc4n3)c(=O)oc12` was tested, and the TGI was 76.6 µM. Work on `O=C(NC(=O)c1ccccc1[N+](=O)[O-])Nc1ccc(Oc2ncc(Br)cn2)c(Cl)c1` yielded a GI50 of less than 0.0184 µM and a TGI of 0.0465 µM. `ClCCN1CCC2(CC1)SSC1(CCN(CCCl)CC1)S2` was tested, and the TGI was 92.5 µM. `O=c1c2cc([N+](=O)[O-])cnc2sn1-c1ccc([N+](=O)[O-])cc1` was tested, and the TGI was greater than 100 µM. `COC(=O)C1SC(SC)=NC12c1ccccc1Nc1ccccc12` (stereo not given) showed a TGI greater than 100 µM. With `COc1ccc2cc(NC(=O)N/N=C\c3ccc([N+](=O)[O-])cc3)ccc2c1` the TGI was greater than 100 µM. In the case of `CCOC(=O)C1(C/C=C/CBr)Cc2ccccc2C1=O` (stereo not given), the TGI is reported as 22.1 µM. `CN1CCc2cc(N)cc3c2C1Cc1ccc(O)c(O)c1-3` (stereo not given) showed a TGI greater than 100 µM. `CCCN(C(=O)c1ccccc1)C(C#N)c1ccc(C(C#N)N(CCC)C(=O)c2ccccc2)cc1` (stereo not given) gave a TGI greater than 100 µM. `S=C1Nc2ccccc2SC1c1ccccc1` (stereo not given) showed a TGI greater than 100 µM. Compound `COC(=O)c1ccccc1CC1Cc2ccc3c(c2C1=O)CCCC3` (stereo not given) has a TGI greater than 100 µM. Work on `CN1CCN(C2=NCCO2)CC1` yielded a TGI greater than 100 µM. Work on `c1ccc(N=c2sc3ccccc3nc2Nc2ccccc2)cc1` yielded a TGI greater than 100 µM.
